Data published in ChEMBL document CHEMBL5257025, “Artemisinin-Derived Dimers: Potent Antimalarial and Anticancer Agents” (J Med Chem, 2016).

Legend:
MCF7 [1] = assay: Antiproliferative activity against human MCF7 cells assessed as reduction in cell viability measured after 48 hrs by SRB assay; type: functional, cell-based; settings: MCF7, 48 h
HT-29 = assay: cells; settings: Homo sapiens, HT-29, 72 h
BeWo = assay: Antiproliferative activity against human BeWo cells assessed as reduction in cell viability after 72 hrs by MTT assay; type: functional, cell-based
P388 = assay: Antiproliferative activity against mouse P388 cells assessed as cell growth inhibition incubated for 72 hrs by MTT assay; type: functional, cell-based; settings: P388, 72 h
[2] = Antiproliferative activity against human YD-10B cells assessed as cell growth inhibition measured after 72 hrs by MTT assay; type: functional, cell-based
Plasmodium falciparum [3] = assay: microbe, parasite or virus in culture; settings: K1
Description: Antiplasmodial activity against Plasmodium falciparum K1 assessed as inhibition of parasitic growth

Plasmodium falciparum [4] = assay: Antimalarial activity against Plasmodium falciparum 3D7 assessed as inhibition of malarial growth; type: functional, organism-based
Plasmodium falciparum [5] = assay: microbe, parasite or virus in culture; settings: Dd2
Description: Antiplasmodial activity against Plasmodium falciparum Dd2 assessed as inhibition of parasitic growth

Plasmodium falciparum [6] = assay: Antimalarial activity against Plasmodium falciparum D10 assessed as inhibition of parasitic growth; type: functional, organism-based
Plasmodium falciparum [7] = assay: microbe, parasite or virus in culture; settings: D6
Description: Antiplasmodial activity against Plasmodium falciparum D6 assessed as inhibition of parasitic growth

[8] = Cytotoxicity against African green monkey Vero cells; type: toxicity, cell-based; settings: chlorocebus sabaeus, read-out: TC50 (the source's name)
Plasmodium falciparum [9] = assay: microbe, parasite or virus in culture; settings: W2
Description: Antiplasmodial activity against Plasmodium falciparum W2 assessed as inhibition of cell growth

[10] = Cytotoxicity against CHO cells assessed as reduction in cell viability; type: toxicity, cell-based, Cricetulus griseus; settings: chinese hamster, read-out: TC50 (the source's name)
TRAMP-C2H = assay: Cytotoxicity against mouse TRAMP-C2H cells assessed as inhibition of cell growth measured after 72 hs by MTT assay; type: functional, cell-based
C2G cell line = assay: Cytotoxicity against mouse C2G cells assessed as inhibition of cell growth measured after 72 hrs by MTT assay; type: functional, cell-based
[11] = Cytotoxicity against human HFF cells assessed as cell growth inhibition measured after 48 hrs by MTT assay; type: toxicity, cell-based
[12] = Antiproliferative activity against human 1205Lu cells assessed as reduction in cell growth; type: functional, cell-based
Plasmodium falciparum [13] = assay: Antimalarial activity against Plasmodium falciparum NF54 assessed as reduction in cell growth; type: functional, organism-based
HCT-116 = assay: Antiproliferative activity against human HCT-116 cells assessed as growth after 48 hrs by MTT assay; type: functional, cell-based; settings: HCT-116, 48 h
C2D cell line = assay: Cytotoxicity against mouse C2D cell line assessed as inhibition of cell growth measured after 72 hrs by MTT assay; type: functional, cell-based
[14] = Cytotoxicity against rat MTLn3 cells assessed as cell growth inhibition; type: toxicity, cell-based
HeLa = assay: Antiproliferative activity against human Hela cells assessed as cell growth inhibition measured after 48 hrs by MTT assay; type: functional, cell-based
MCF7 [15] = assay: Growth inhibition of human MCF7 cells assessed as cell growth inhibition incubated for 48 hrs by MTT assay; type: functional
UACC-62 [16] = assay: Growth inhibition of human UACC-62 cells assessed as cell growth inhibition measured after 48 hrs by MTT assay; type: functional
TK-10 [17] = assay: Growth inhibition of human TK-10 cells assessed as cell growth inhibition measured after 48 hrs by MTT assay; type: functional
Ehrlich = assay: Cytotoxicity against mouse Ehrlich cells assessed as growth inhibition at 100 ug/ml; type: functional, cell-based
CAKI-1 = assay: Antiproliferative activity against human CAKI-1 cells assessed as reduction in cell viability after 48 hrs by SRB assay; type: functional, cell-based; settings: CAKI-1, 48 h
M14 = assay: Antiproliferative activity against human M14 cells assessed as growth inhibition incubated for 72 hrs by luminescence assay; type: functional, cell-based; settings: M14, 72 h
SK-OV-3 = assay: Antiproliferative activity against human SK-OV-3 cells assessed as reduction in cell viability incubated for 48 hrs by MTT assay; type: functional, cell-based; settings: SK-OV-3, 48 h
HL-60 = assay: Antiproliferative activity against human HL-60 cells assessed as reduction in cell viability incubated for 48 hrs by MTT assay; type: functional, cell-based; settings: HL-60, 48 h
K562 = assay: Antiproliferative activity against human K562 cells assessed as reduction in cell viability by MTT assay; type: functional, cell-based
OVCAR-3 = assay: Antiproliferative activity against human OVCAR-3 cells assessed as reduction in cell viability; type: functional, cell-based
A498 = assay: Antiproliferative activity against human A498 cells assessed as reduction in cell viability; type: functional, cell-based
LOX IMVI = assay: Antiproliferative activity against human LOX IMVI cells assessed as cell growth inhibition; type: functional, cell-based
PC-3 = assay: Antiproliferative activity against human PC-3 cells assessed as cell growth inhibition; type: functional, cell-based
T47D = assay: Antiproliferative activity against human T47D cells assessed as inhibition of cell growth; type: functional, cell-based
DU-145 = assay: Antiproliferative activity against human DU-145 cells assessed as reduction in cell viability; type: functional, cell-based
XF498 = assay: Antiproliferative activity against human XF498 cells assessed as reduction in cell viability incubated for 48 hrs by MTT assay; type: functional, cell-based; settings: XF498, 48 h
SK-MEL [18] = assay: Antiproliferative activity against human SK-MEL cells assessed as reduction in cell viability incubated for 48 hrs by MTT assay; type: functional, cell-based
Plasmodium berghei = assay: In vivo antimalarial activity against Plasmodium berghei infected mouse model assessed as survival time at 8 mg/kg, po in presence of Mefloquine hydrochloride
BT-549 = assay: Antiproliferative activity against human BT-549 cells assessed as reduction in cell viability incubated for 48 hrs by MTT assay; type: functional, cell-based; settings: BT-549, 48 h
[19] = Cytotoxicity against pig LLC-PK1 cells; type: toxicity, cell-based, Sus scrofa; settings: read-out: TC50 (the source's name)
SK-MEL [20] = assay: Antiproliferative activity against human SK-MEL cells assessed as reduction in cell growth inhibition; type: functional, cell-based
KB = assay: Antiproliferative activity against human KB cells assessed as reduction in cell viability incubated for 48 hrs by MTT assay; type: functional, cell-based
EL4 = assay: Antiproliferative activity against mouse EL4 cells assessed as cell growth inhibition incubated for 72 hrs by MTT assay; type: functional, cell-based; settings: EL4, 72 h
TK-10 [21] = assay: Antiproliferative activity against human TK-10 cells assessed as reduction in cell viability incubated for 48 hrs by SRB assay; type: functional, cell-based; settings: TK-10, 48 h
UACC-62 [22] = assay: Antiproliferative activity against human UACC-62 cells assessed as reduction in cell viability incubated for 48 hrs by SRB assay; type: functional, cell-based; settings: UACC-62, 48 h

C[C@@H]1CC[C@H]2[C@@H](C)C(CCSCCC3O[C@@H]4O[C@]5(C)CC[C@@H]6[C@@H](C)CC[C@H]([C@@H]3C)[C@]46OO5)O[C@H]3O[C@@]4(C)CC[C@@H]1[C@]32OO4 (some centres undefined)
IC50 (MCF7 [1]): 30 nM
IC50 (HT-29): 390 nM
IC50 (BeWo): 22800 nM
IC50 (P388): 640 nM
IC50 [2]: 9300 nM

C[C@H]1[C@@H](O)O[C@H]2O[C@@]3(C)CC[C@H]4[C@H](C)CC[C@@H]1[C@@]24OO3
IC50 (Plasmodium falciparum [3]): 2.09 nM
IC50 (Plasmodium falciparum [4]): 2.09 nM
IC50 (Plasmodium falciparum [5]): 2.09 nM
IC50 (Plasmodium falciparum [6]): 2.09 nM
IC50 (Plasmodium falciparum [7]): 2.09 nM
CC50 [8]: 1410 nM
IC50 (Plasmodium falciparum [9]): 2.09 nM
CC50 [10]: 148000 nM

C[C@@H]1CC[C@H]2[C@@H](C)C(CC(CO)CC3O[C@H]4O[C@@]5(C)CC[C@H]6[C@H](C)CC[C@@H]([C@H]3C)[C@@]46OO5)O[C@H]3O[C@@]4(C)CC[C@@H]1[C@]32OO4 (some centres undefined)
IC50 (TRAMP-C2H): 9.2 nM
IC50 (C2G cell line): 15.4 nM
IC50 at 48 h [11]: 48100 nM
IC50 [12]: 4900 nM
IC50 (Plasmodium falciparum [13]): 0.87 nM
IC50 (HCT-116): 100 nM
IC50 (C2D cell line): 18.5 nM
IC50 [14]: 43 nM
IC50 (HeLa): 1060 nM

C[C@@H]1CC[C@H]2[C@@H](C)C(OCCCN3CC[N+](CCCOC4O[C@@H]5O[C@]6(C)CC[C@@H]7[C@@H](C)CC[C@H]([C@@H]4C)[C@]57OO6)(CCNc4ccnc5cc(Cl)ccc45)CC3)O[C@H]3O[C@@]4(C)CC[C@@H]1[C@]32OO4 (some centres undefined)
IC50 (Plasmodium falciparum [4]): 29.5 nM
GI50 (MCF7 [15]): 30 nM
GI50 (UACC-62 [16]): 40 nM
GI50 (TK-10 [17]): 80 nM

C[C@H]1[C@@H](O[C@H]2O[C@H]3O[C@@]4(C)CC[C@H]5[C@H](C)CC[C@@H]([C@H]2C)[C@@]35OO4)O[C@H]2O[C@@]3(C)CC[C@H]4[C@H](C)CC[C@@H]1[C@@]24OO3
IC50 (Ehrlich): 31200 nM

C[C@@H]1CC[C@H]2[C@@H](C)C(OCC(COC3O[C@H]4O[C@@]5(C)CC[C@H]6[C@H](C)CC[C@@H]([C@H]3C)[C@@]46OO5)OC(=O)CCC(=O)O)O[C@H]3O[C@@]4(C)CC[C@@H]1[C@]32OO4 (some centres undefined)
IC50 (CAKI-1): 30000 nM
IC50 (MCF7 [1]): 200 nM
IC50 (M14): 30000 nM
IC50 (SK-OV-3): 25000 nM
IC50 (HL-60): 60 nM
IC50 (K562): 200 nM
IC50 (OVCAR-3): 250 nM
IC50 (A498): 20000 nM
IC50 (LOX IMVI): 80 nM
IC50 (PC-3): 40 nM
IC50 (T47D): 75 nM
IC50 (DU-145): 20000 nM

C[C@@H]1CC[C@H]2[C@@H](C)C(CC(CC3O[C@@H]4O[C@]5(C)CC[C@@H]6[C@@H](C)CC[C@H]([C@@H]3C)[C@]46OO5)C(=O)N/N=C/c3ccccc3O)O[C@H]3O[C@@]4(C)CC[C@@H]1[C@]32OO4 (some centres undefined)
IC50 [14]: 52 nM

C[C@@H]1CC[C@H]2[C@@H](C)C(OCCC(CCCNc3ccnc4ccc(Cl)cc34)CCOC3O[C@@H]4O[C@]5(C)CC[C@@H]6[C@@H](C)CC[C@H]([C@@H]3C)[C@]46OO5)O[C@H]3O[C@@]4(C)CC[C@@H]1[C@]32OO4 (some centres undefined)
IC50 (Plasmodium falciparum [4]): 8.7 nM
GI50 (MCF7 [15]): 30 nM
GI50 (UACC-62 [16]): 50 nM
GI50 (TK-10 [17]): 80 nM

C[C@@H]1CC[C@H]2[C@@H](C)C(CCC(=O)NCCCN3CCN(CCCNC(=O)CCC4O[C@H]5O[C@]6(C)CC[C@H]7[C@H](C)CC[C@@H]([C@H]4C)[C@@]57OO6)CC3)O[C@H]3O[C@]4(C)CC[C@@H]1[C@]32OO4 (some centres undefined)
IC50 (XF498): 460 nM
IC50 (SK-MEL [18]): 450 nM

C[C@@H]1CC[C@H]2[C@@H](C)C(CC(CC3O[C@@H]4O[C@]5(C)CC[C@@H]6[C@@H](C)CC[C@H]([C@@H]3C)[C@]46OO5)C[Si](C)(C)C)O[C@H]3O[C@@]4(C)CC[C@@H]1[C@]32OO4 (some centres undefined)
survival time (Plasmodium berghei): > 57 days

C[C@@H]1CC[C@H]2[C@@H](C)C(OCC(COC3O[C@H]4O[C@@]5(C)CC[C@H]6[C@H](C)CC[C@@H]([C@H]3C)[C@@]46OO5)=NO)O[C@H]3O[C@@]4(C)CC[C@@H]1[C@]32OO4 (some centres undefined)
IC50 (CAKI-1): 13000 nM
IC50 (MCF7 [1]): 60 nM
IC50 (M14): 15000 nM
IC50 (SK-OV-3): 15000 nM
IC50 (HL-60): 40 nM
IC50 (K562): 150 nM
IC50 (OVCAR-3): 200 nM
IC50 (A498): 6500 nM
IC50 (LOX IMVI): 55 nM
IC50 (PC-3): 20 nM
IC50 (T47D): 30 nM
IC50 (DU-145): 15000 nM

C[C@H]1[C@H](O[C@H]2O[C@H]3O[C@@]4(C)CC[C@H]5[C@H](C)CC[C@@H]([C@H]2C)[C@@]35OO4)O[C@H]2O[C@@]3(C)CC[C@H]4[C@H](C)CC[C@@H]1[C@@]24OO3
IC50 (Ehrlich): 3600 nM

CC(=O)O[C@H]1C(=O)[C@@]2(C)[C@H]([C@H](OC(=O)c3ccccc3)[C@]3(O)C[C@H](OC(=O)[C@H](O)[C@@H](NC(=O)c4ccccc4)c4ccccc4)C(C)=C1C3(C)C)[C@]1(OC(C)=O)CO[C@@H]1C[C@@H]2O [PACLITAXEL]
IC50 (MCF7 [1]): 0.1 nM
IC50 (SK-OV-3): 0.1 nM
IC50 (HT-29): 0.1 nM
IC50 (BT-549): 0.1 nM
IC50 (BeWo): 0.1 nM
CC50 [19]: 4390 nM
IC50 (P388): 0.1 nM
IC50 [2]: 0.1 nM
IC50 (SK-MEL [20]): 0.1 nM
IC50 (KB): 0.1 nM
IC50 (EL4): 0.1 nM

COc1cc([C@@H]2c3cc4c(cc3[C@@H](O[C@@H]3O[C@@H]5CO[C@@H](C)O[C@H]5[C@H](O)[C@H]3O)[C@H]3COC(=O)[C@H]23)OCO4)cc(OC)c1O [ETOPOSIDE]
IC50 (MCF7 [1]): 830 nM
IC50 (TK-10 [21]): 830 nM
IC50 (UACC-62 [22]): 830 nM
